Legend:
K562/adr = assay: MTT leukemia cell proliferation inhibition, K562/adr; type: cell-based; settings: Homo sapiens, 72 h; for inhibition at 16 µg/mL: 16 μg/mL compound, read-out: IR (inhibition rate); for IC50: MTT
Source text: Leukemia cell lines: leukemia cell lines: K562/adr (drug-resistant, chronic myeloid leukemia, CML), NB4 (acute promyelocytic leukemia, AML), Kasumi-1 (acute myeloid leukemia M2 type, AML-M2), Jurkat (acute lymphoblastic leukemia, ALL), all of which are donated by Cancer Research Institute of Zhejiang University, China; and H9 (acute lymphoblastic leukemia, ALL), which is purchased from China Center for Type Culture Collection (CCTCC).
Reagents: The standard sample of oleanolic acid (OA) is purchased from Hua Kang Pharmaceutical Raw Material Factory, Shifang City, Sichuan, China; and the amidated oleanolic acid derivatives are prepared according to the present invention.
Obtaining 6000 well-growing leukemia cells and inoculating them into wells of a 96-well cell culture plate. The culture medium is the 1640 cell culture medium containing 10% fetal bovine serum. After adding the amidated oleanolic acid derivatives of different concentrations and mixing uniformly, placing the plate in a carbon dioxide cell incubator (5% CO2) at 37° C. and incubated for 72 hours. Then the relative number of viable cells is determined by the MTT method. In this experiment, the cell proliferation inhibition rate in control group (not treated with any compound) is set as 0%.

A549 = assay: MTT solid tumor cell proliferation inhibition, A549; type: cell-based, human; settings: Homo sapiens; for inhibition at 16 µg/mL: A549, 16 μg/mL compound, 72 h, read-out: IR (inhibition rate); for IC50: A549, 72 h, MTT
Protocol: Human solid tumor cell lines: Hep-2 (laryngeal carcinoma), A549 (human lung cancer), CaES-17 (esophageal cancer cell), PC-3 (prostate cancer), CNE (nasopharyngeal carcinoma cell), and SK-OV-3 (ovarian cancer cell), all of which are purchased from China Center For Type Culture Collection; RKO (human colon adenocarcinoma cell), MGC 803 (human gastric cancer cell), MG63 (osteosarcoma) and U87 MG (malignant glioma cell), all of which are purchased from Fuxiang Bio-tech Co. Ltd., Shanghai, China; PANC-1 (pancreatic cancer), Hep G2 (human liver cancer cell), Becap37 (human breast cancer cell), and Hela (human cervical cancer cell), all of which are donated by Cancer Research Institute of Zhejiang University, China.
Obtaining 4000 well-growing human solid tumor cells and inoculating them into wells of a 96-well cell culture plate. The culture medium is DMEM High Glucose cell culture medium containing 10% fetal bovine serum. The plate is placed in a carbon dioxide cell incubator (5% CO2) at 37° C. for 24 hours for incubation. After being added with the amidated oleanolic acid derivatives of different concentrations and mixed uniformly, the plate is placed in a carbon dioxide cell incubator (5% CO2) at 37° C. for 72 hours for incubation. Then the relative number of the living cells is determined by the MTT method. In this experiment, the cell proliferation inhibition rate in control group (not treated with any compound) is set as 0%.

IC50 (K562/adr) | IC50 (A549) | Structure (SMILES) | inhibition at 16 µg/mL (K562/adr) | inhibition at 16 µg/mL (A549)
> 16 µg/mL | > 16 µg/mL | CC1(C)CC[C@]2(NC(=O)/C=C/c3ccco3)CC[C@]3(C)C(=CC[C@@H]4[C@@]5(C)CC[C@H](O)C(C)(C)[C@@H]5CC[C@]43C)[C@@H]2C1 [BS-OA-100] | 38.8% | 15.6%
> 16 µg/mL | > 16 µg/mL | Cc1ccc(C(=O)N[C@]23CCC(C)(C)C[C@H]2C2=CC[C@@H]4[C@@]5(C)CC[C@H](O)C(C)(C)[C@@H]5CC[C@@]4(C)[C@]2(C)CC3)cc1 [BS-OA-102] | 57% | 13.7%
